Experimental findings from patent publication US8952008B2, “Chemical compounds” (Pfizer Limited, priority 2012, dated 2015) are described below.

Like-named read-outs stand apart in the source and are kept apart here.

Experiment [1] concerns the target human recombinant GABA A receptor containing the alpha2, beta2, and gamma3 subunits (Homo sapiens, UniProt P47869+Q99928). Description: Radioligand competition binding assay with [3H]Ro-15-1788 (Flumazenil).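 Further: membranes from HEK cells expressing the receptor, incubated with radioligand to equilibrium, filter-bound radioactivity counted, Ki reported as geometric mean of replicate runs.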 A general note: Loss of bound radioactivity is the signal in a displacement assay; it reports binding, not function.
Procedure: Membranes were prepared from HEK cells expressing hGABA A alpha2beta2-gamma3 receptor, and validated to ascertain protein concentration, receptor expression and to determine the Kd of the flumazenil as well as the Ki of a standard set of compounds before being used to test new compounds.
100 ul of radioligand and 100 ul of membrane in 50 mM Tris-HCl and 0.05% F127 with 1 ul of test compound was incubated for 2 hours to allow the reaction to achieve equilibrium, and then harvested onto filter plates, dried and counted on a TopCount NXT. The data was analysed, and the Ki values were presented as the geometric mean of at least two replicates.
The target in experiment [2] is GABRA1-GABRB3-GABRG2 chloride currents in HEK cells (Homo sapiens (Human), UniProt P14867+P18507). Description: QPatch electrophysiological recording, % enhancement of GABA current (α1 PAM). It is filed as cell-based. The note with it: approximately EC10 GABA, −60 mV, whole-cell patch clamp. How it is done: (§1) Cell suspension containing HEK cells expressing GABRA2-GABRB2-GABRG2 was placed on the QPatch instrument in serum-free medium into the instrument's cell stirrer. The instrument washed the cells once using extracellular buffer and then dispensed them into the QPlate HT measurement plate at a concentration of 3-4-e6/ml. […] All recordings were made at room temperature (22-24° C.).
(§2) Current records were acquired at 1 KHz and filtered at 0.3 KHz using the Bessel filter. Series resistance compensation was set to 80% in the QPatch software.
(§3) All compounds were dissolved in dimethyl sulfoxide to make 30 mM or 10 mM stock solutions, which were then diluted to 1000 times the desired final concentration in dimethyl sulfoxide. These were diluted into extracellular solution to attain the final concentrations desired. […] This concentration of dimethyl sulfoxide was present in all samples.
(§4) Currents were recorded at −60 mV, using an approximately EC10 concentration of gamma-aminobutyric acid (GABA). This dose of gamma-aminobutyric acid was applied for 6 seconds and washed off using extracellular buffer as an unrecorded application using the pipetting system of the QPatch instrument. The same dose of gamma-aminobutyric acid was then applied for 9 seconds, then the test compound was co-applied with this dose of gamma-aminobutyric acid for 15 seconds, and washed off using the extracellular solution using the pipetting system of the QPatch instrument.
(§5) Compound effect (% enhancement of gamma-aminobutyric acid current) was calculated using the following formula: [((peak modulator current amplitude-leak)−(GABA current amplitude-leak))/(GABA current amplitude-leak)]*100, where ‘leak’ is leak current at −60 mV, ‘peak modulator current amplitude’ is the current elicited by co-application of gamma-aminobutyric acid and test compound, and ‘GABA current amplitude’ is the current elicited by application of gamma-aminobutyric acid alone.
The ability of the compounds of the formula (I) to modulate the GABA channels expressing the al subunit (or GABRA1) can also be measured using an assay analogous to that described above but replacing the GABRA2-GABRB2-GABRG2 gene construct with the GABRA1-GABRB3-GABRG2 gene construct. All other conditions remain the same including the same cell line and conditions for cell growth.
In general terms: Patch clamp records ionic current or voltage across a cell membrane.

Experiment [3] has as its target GABRA2-GABRB2-GABRG2 chloride currents in HEK cells (Homo sapiens (Human), UniProt P18507+P47869). Description: QPatch electrophysiological recording, % enhancement of GABA current (α2 PAM). It is filed as cell-based. The note with it: approximately EC10 GABA, −60 mV, whole-cell patch clamp. Here is the method:
Human Embryonic Kidney (HEK) cells were transfected with a GABRA2-GABRB2-GABRG2 construct using standard techniques.
For QPatch electrophysiology testing, cells were harvested from flasks by enzymatic dissociation and resuspended in serum-free medium. Cells were typically used for electrophysiological experiments within 24 to 72 hours after splitting.
as §1, §2, §3, §4, §5

Sequence of GABRA1-GABRB3-GABRG2 chloride currents in HEK cells (P14867 28-456): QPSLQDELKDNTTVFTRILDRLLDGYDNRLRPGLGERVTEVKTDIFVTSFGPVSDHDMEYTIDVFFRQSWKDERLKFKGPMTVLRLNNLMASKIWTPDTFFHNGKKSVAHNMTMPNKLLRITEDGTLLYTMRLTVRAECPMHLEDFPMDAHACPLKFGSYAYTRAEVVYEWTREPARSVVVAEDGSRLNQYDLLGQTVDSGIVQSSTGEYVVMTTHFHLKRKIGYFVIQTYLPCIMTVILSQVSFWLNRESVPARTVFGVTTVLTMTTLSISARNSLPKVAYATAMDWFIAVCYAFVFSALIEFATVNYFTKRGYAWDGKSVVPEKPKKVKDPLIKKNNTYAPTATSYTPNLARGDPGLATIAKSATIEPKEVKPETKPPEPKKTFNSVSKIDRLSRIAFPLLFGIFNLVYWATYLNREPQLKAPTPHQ
Sequence of GABRA1-GABRB3-GABRG2 chloride currents in HEK cells (P28472 26-473 partner): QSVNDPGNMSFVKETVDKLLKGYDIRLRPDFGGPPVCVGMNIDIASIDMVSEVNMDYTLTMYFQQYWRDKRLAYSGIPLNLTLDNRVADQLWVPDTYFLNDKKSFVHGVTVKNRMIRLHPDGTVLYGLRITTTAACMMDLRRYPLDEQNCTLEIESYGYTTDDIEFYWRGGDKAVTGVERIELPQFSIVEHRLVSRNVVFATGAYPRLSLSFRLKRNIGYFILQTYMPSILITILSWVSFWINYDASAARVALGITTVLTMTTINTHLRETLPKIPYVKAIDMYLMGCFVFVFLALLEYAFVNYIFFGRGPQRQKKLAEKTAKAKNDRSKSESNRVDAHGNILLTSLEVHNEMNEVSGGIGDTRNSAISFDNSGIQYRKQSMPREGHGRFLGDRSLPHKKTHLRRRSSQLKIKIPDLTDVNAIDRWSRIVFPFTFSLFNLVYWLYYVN
Sequence of GABRA1-GABRB3-GABRG2 chloride currents in HEK cells (P18507 40-475): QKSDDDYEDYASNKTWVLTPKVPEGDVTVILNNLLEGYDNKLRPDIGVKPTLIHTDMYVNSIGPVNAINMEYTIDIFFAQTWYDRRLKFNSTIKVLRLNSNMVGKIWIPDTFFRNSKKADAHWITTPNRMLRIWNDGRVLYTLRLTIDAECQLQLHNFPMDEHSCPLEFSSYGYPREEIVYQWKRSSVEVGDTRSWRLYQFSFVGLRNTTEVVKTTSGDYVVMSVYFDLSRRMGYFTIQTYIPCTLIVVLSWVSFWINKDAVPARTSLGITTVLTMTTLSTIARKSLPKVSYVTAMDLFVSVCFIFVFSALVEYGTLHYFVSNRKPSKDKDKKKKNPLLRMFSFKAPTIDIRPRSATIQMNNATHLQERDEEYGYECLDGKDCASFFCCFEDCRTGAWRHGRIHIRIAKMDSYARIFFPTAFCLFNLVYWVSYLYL
Sequence of GABRA2-GABRB2-GABRG2 chloride currents in HEK cells (P47869 29-451): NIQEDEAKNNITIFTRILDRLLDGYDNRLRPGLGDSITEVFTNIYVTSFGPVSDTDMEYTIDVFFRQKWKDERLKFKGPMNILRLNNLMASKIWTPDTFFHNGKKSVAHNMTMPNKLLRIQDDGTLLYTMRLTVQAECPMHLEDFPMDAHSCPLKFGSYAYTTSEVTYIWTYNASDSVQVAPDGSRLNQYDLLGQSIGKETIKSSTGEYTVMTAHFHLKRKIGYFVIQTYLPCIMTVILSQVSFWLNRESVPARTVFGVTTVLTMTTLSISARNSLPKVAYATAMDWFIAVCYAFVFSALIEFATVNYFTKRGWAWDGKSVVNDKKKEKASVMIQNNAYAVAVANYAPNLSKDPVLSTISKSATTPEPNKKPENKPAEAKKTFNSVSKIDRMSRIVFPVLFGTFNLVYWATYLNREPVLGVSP
Sequence of GABRA2-GABRB2-GABRG2 chloride currents in HEK cells (P47870 26-512 partner): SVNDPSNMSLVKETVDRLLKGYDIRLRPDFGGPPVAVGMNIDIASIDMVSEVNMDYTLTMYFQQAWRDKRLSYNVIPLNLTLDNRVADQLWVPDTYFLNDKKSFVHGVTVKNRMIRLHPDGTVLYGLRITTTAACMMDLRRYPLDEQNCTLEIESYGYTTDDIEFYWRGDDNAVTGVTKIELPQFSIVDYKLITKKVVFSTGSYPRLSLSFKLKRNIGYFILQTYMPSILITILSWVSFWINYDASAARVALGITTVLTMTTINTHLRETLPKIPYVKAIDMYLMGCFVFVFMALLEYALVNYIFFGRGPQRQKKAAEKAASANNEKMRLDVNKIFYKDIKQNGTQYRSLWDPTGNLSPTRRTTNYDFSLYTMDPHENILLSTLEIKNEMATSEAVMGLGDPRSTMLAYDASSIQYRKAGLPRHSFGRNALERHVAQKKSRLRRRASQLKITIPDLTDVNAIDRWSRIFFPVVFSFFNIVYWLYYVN
Sequence of GABRA2-GABRB2-GABRG2 chloride currents in HEK cells (P18507 40-475): as the sequence (P18507 40-475) above

As a reminder, the Ki is the equilibrium dissociation constant of an inhibitor or competing ligand from its target. Regarding `CCn1cnc2c(-c3ccc(F)c(-c4ccc(S(=O)(=O)C5CCC5)cc4OC)c3)cnnc21` [Example 6, 4-(4′-(Cyclobutylsulfonyl)-6-fluoro-2′-methoxy-[1,1-biphenyl]-3-yl)-7-ethyl-7H-imidazo[4,5-c]pyridazine], in experiment [1], the Ki amounted to 9.51 nM.
As to `CCn1cnc2c(-c3ccc(O)c(-c4ccc(S(=O)(=O)CC)cc4OC)c3)cnnc21` [Example 48, 5-(7-Ethyl-7H-imidazo[4,5-c]pyridazin-4-yl)-4′-(ethylsulfonyl)-2′-methoxy-[1,1′-biphenyl]-2-ol], the “α1 PAM (%)” value in experiment [2] is reported as −5.53%. The “α2 PAM (%)” value in experiment [3] turned out to be 47.8%.
Take `CCn1cnc2c(-c3ccc(F)c(-c4ccc(S(=O)(=O)CC)cc4OC)c3)cnnc21` [Example 4, 7-Ethyl-4-[4′-(ethylsulfonyl)-6-fluoro-2′-methoxybiphenyl-3-yl]-7H-imidazo[4,5-c]pyridazine]: the “α1 PAM (%)” value in experiment [2] is reported as 18.1%.
On to `CCn1cnc2c(-c3ccc(C#N)c(-c4ccc(S(=O)(=O)CC)cc4OC)c3)cnnc21` [Example 47, 5-(7-Ethyl-7H-imidazo[4,5-c]pyridazin-4-yl)-4′-(ethylsulfonyl)-2′-methoxy-[1,1′-biphenyl]-2-carbonitrile], for which the “α2 PAM (%)” value in experiment [3] is 68.7%.
Regarding `CCS(=O)(=O)c1ccc(-c2cc(-c3cnnc4c3ncn4C3CCC3)ccc2F)cc1` [Example 28, 7-Cyclobutyl-4-[4′-(ethylsulfonyl)-6-fluorobiphenyl-3-yl]-7H-imidazol[4,5-c]pyridazine], the Ki in experiment [1] was 74.3 nM.
On to `CCS(=O)(=O)c1ccc(-c2cc(-c3cnnc4c3ncn4C3(C)CC3)ccc2F)cc1` [Example 27, 4-[4′-(Ethylsulfonyl)-6-fluorobiphenyl-3-yl]-7-(1-methylcyclopropyl)-7H-imidazo[4,5-c]pyridazine], for which the Ki in experiment [1] came to 34.8 nM.
Turning to `CCn1cnc2c(-c3ccc(F)c(-c4ccc(S(N)(=O)=O)cc4)c3)cnnc21` [Example 3, 5′-(7-Ethyl-7H-imidazo[4,5-c]pyridazin-4-yl)-2′-fluorobiphenyl-4-sulfonamide], the “α1 PAM (%)” value in experiment [2] is listed as −51.1%. Also, the “α2 PAM (%)” value in experiment [3] stood at 27.6%.
Regarding `CCn1cnc2c(-c3cccc(-c4ccc(S(C)(=O)=O)cc4)c3)cnnc21` [Example 16, 7-Ethyl-4-[4′-(methylsulfonyl)biphenyl-3-yl]-7H-imidazo[4,5-c]pyridazine], the Ki in experiment [1] stood at 56 nM.
Take `CCn1cnc2c(-c3ccc(F)c(-c4ccc(S(C)(=O)=O)cc4)c3)cnnc21` [Example 9, 7-Ethyl-4-[6-fluoro-4′-(methylsulfonyl)biphenyl-3-yl]-7H-imidazo[4,5-c]pyridazine]: the “α2 PAM (%)” value in experiment [3] was 38.9%.
On to “7-Ethyl-4-[4-fluoro-3-(2-methyl-1,1-dioxido-2,3-di hydro-1,2-benzisothiazol-5-yl)phenyl]-7H-imidazo[4,5-d]pyridazine [Example 50]”, for which, in experiment [1] (read-out: GABA-α2 Ki, competition with [3H]Ro-15-1788, HEK cell membranes, geometric mean of at least two replicates), the Ki is 69.5 nM.
Regarding `CCS(=O)(=O)c1ccc(-c2cc(-c3cnnc4c3ncn4C3CCC3)ccc2F)c(F)c1` [Example 26, 7-Cyclobutyl-4-(4′-(ethylsulfonyl)-2′,6-difluoro-[1,1′-biphenyl]-3-yl)-7H-imidazo[4,5-c]pyridazine], the Ki in experiment [1] was determined as 147 nM.
As for `CCn1cnc2c(-c3ccc(OC)c(-c4ccc(S(=O)(=O)CC)cc4F)c3)cnnc21` [Example 44, 7-Ethyl-4-(4′-(ethylsulfonyl)-2′-fluoro-6-methoxy-[1,1′-biphenyl]-3-yl)-7H-imidazo[4,5-c]pyridazine], the Ki in experiment [1] turned out to be 678 nM.
As for `CCCn1cnc2c(-c3ccc(F)c(-c4ccc(S(=O)(=O)CC)cc4)c3)cnnc21` [Example 30, 4-[4′-(Ethylsulfonyl)-6-fluorobiphenyl-3-yl]-7-propyl-7H-imidazo[4,5-d]pyridazine], the Ki in experiment [1] worked out at 120 nM.
In the case of `CCn1cnc2c(-c3ccc(F)c(-c4ccc(S(=O)(=O)CC)cc4F)c3)cnnc21` [Example 15, 4-(4′-Ethanesulfonyl-6,2′-difluoro-biphenyl-3-yl)-7-ethyl-7H-imidazo[4,5-c]pyridazine], the “α2 PAM (%)” value in experiment [3] was determined as 39.4%.
Regarding `CCn1cnc2c(-c3ccc(F)c(-c4ccc(S(=O)(=O)C(C)C)cc4C#N)c3)cnnc21` [Example 5, 5′-(7-Ethyl-7H-imidazo[4,5-c]pyridazin-4-yl)-2′-fluoro-4-(isopropylsulfonyl)-[1,1′-biphenyl]-2-carbonitrile], in experiment [1], the Ki came out at 108 nM.
Turning to `CCS(=O)(=O)c1ccc(-c2cc(-c3cnnc4c3ncn4C3CC3)ccc2F)c(F)c1` [Example 22, 7-Cyclopropyl-4-(4′-(ethylsulfonyl)-2′,6-difluoro-[1,1′-biphenyl]-3-yl)-7H-imidazo[4,5-c]pyridazine], the inhibition constant (Ki) in experiment [1] is 67.8 nM.
For the molecule `CC(C)n1cnc2c(-c3ccc(F)c(-c4ccc(S(=O)(=O)C(C)C)cc4F)c3)cnnc21` [Example 36, 4-(2′,6-Difluoro-4′-(isopropylsulfonyl)-[1,1′-biphenyl]-3-yl)-7-isopropyl-7H-imidazo[4,5-c]pyridazine], the Ki in experiment [1] came to 87.4 nM.
Still for that read-out and setting: in the case of `CC(C)S(=O)(=O)c1ccc(-c2cc(-c3cnnc4c3ncn4C3CC3)ccc2F)c(C#N)c1` [Example 18] it was 296 nM; in that of `COc1cc(S(=O)(=O)C(C)C)ccc1-c1cc(-c2cnnc3c2ncn3C2CC2)ccc1F` [Example 23, 7-Cyclopropyl-4-(6-fluoro-4′-(isopropylsulfonyl)-2′-methoxy-[1,1′-biphenyl]-3-yl)-7H-imidazo[4,5-c]pyridazine], 40.5 nM; in that of `CCS(=O)(=O)c1ccc(-c2cc(-c3cnnc4c3ncn4C(C)C)ccc2F)c(OC)c1` [Example 40, 4-(4′-(Ethylsulfonyl)-6-fluoro-2′-methoxy-[1,1′-biphenyl]-3-yl)-7-isopropyl-7H-imidazo[4,5-c]pyridazine], 14 nM.
As to `CCS(=O)(=O)c1ccc(-c2cc(-c3cnnc4c3ncn4C3CCCC3)ccc2F)c(OC)c1` [Example 43, 7-Cyclopentyl-4-(4′-(ethylsulfonyl)-6-fluoro-2′-methoxy-[1,1′-biphenyl]-3-yl)-7H-imidazo[4,5-c]pyridazine], the Ki in experiment [1] came out at 118 nM.
In the case of `CCn1cnc2c(-c3cccc(-c4ccc5c(c4)CCS5(=O)=O)c3)cnnc21` [Example 17, 4-[3-(1,1-dioxido-2,3-dihydro-1-benzothiophen-5-yl)phenyl]-7-ethyl-7H-imidazo[4,5-c]pyridazine], the Ki in experiment [1] is 102 nM.
Still for that read-out and setting: in the case of `CCn1cnc2c(-c3ccc(OC)c(-c4ccc(S(=O)(=O)CC)cc4OC)c3)cnnc21` [Example 46, 7-Ethyl-4-(4′-(ethylsulfonyl)-2′,6-dimethoxy-[1,1′-biphenyl]-3-yl)-7H-imidazol[4,5-c]pyridazine] it was 1750 nM.
For the molecule `CCS(=O)(=O)c1ccc(-c2cc(-c3cnnc4c3ncn4C(C)C)ccc2F)c(Cl)c1` [Example 39, 4-(2′-Chloro-4′-(ethylsulfonyl)-6-fluoro-[1,1′-biphenyl]-3-yl)-7-isopropyl-7H-imidazo[4,5-c]pyridazine], the Ki in experiment [1] was 14.4 nM.
As for `CC(C)n1cnc2c(-c3ccc(F)c(-c4ccc(S(=O)(=O)C(C)C)cc4C#N)c3)cnnc21` [Example 35, 2′-Fluoro-5′-(7-isopropyl-7H-imidazo[4,5-c]pyridazin-4-yl)-4-(isopropylsulfonyl)-[1,1′-biphenyl]-2-carbonitrile], in experiment [1], the Ki turned out to be 38.8 nM.
In the case of `NS(=O)(=O)c1ccc(-c2cc(-c3cnnc4c3ncn4C3CC3)ccc2F)cc1` [Example 20, 5′-(7-Cyclopropyl-7H-imidazo[4,5-c]pyridazin-4-yl)-2′-fluoro-[1,1′-biphenyl]-4-sulfonamide], in experiment [1], the inhibitory constant (Ki) turned out to be 19 nM. Besides, the “α2 PAM (%)” value in experiment [3] is on record as 36.3%.
For the molecule `CCn1cnc2c(-c3ccc(Cl)c(-c4ccc(S(=O)(=O)CC)cc4OC)c3)cnnc21` [Example 45, 4-(6-Chloro-4′-(ethylsulfonyl)-2′-methoxy-[1,1′-biphenyl]-3-yl)-7-ethyl-7H-imidazo[4,5-c]pyridazine], the “α2 PAM (%)” value in experiment [3] worked out at 61.1%.
With `CCn1cnc2c(-c3ccc(F)c(-c4ccc(S(=O)(=O)CC)cc4)c3)cnnc21` [Example 49, 7-Ethyl-4-[4′-(ethylsulfonyl)-6-fluorobiphenyl-3-yl]-7H-imidazo[4,5-d]pyridazine], the “α2 PAM (%)” value in experiment [3] is on record as 83.9%.
